In one assay the test system is K. pneumoniae GN 3835. Kind of assay: Minimum Inhibitory Concentration, agar dilution, K. pneumoniae GN 3835. Type of assay: cell-based. Conditions: Klebsiella pneumoniae. An excerpt: (§1) […]. | Minimum Inhibitory Concentrations (mcg/ml, agar dilution)
The subject of a further assay is P. vulgaris IFO 3988. Kind of assay: Minimum Inhibitory Concentration, agar dilution, P. vulgaris IFO 3988. The format is cell-based. Conditions: Proteus vulgaris.
Excerpt: as §1
A general note: In agar dilution the substance is mixed into plates at graded concentrations.

The next assay deals with E. coli T-7. Kind of assay: Minimum Inhibitory Concentration, agar dilution, E. coli T-7. Conditions: Escherichia coli. The format is cell-based.
Excerpt: as §1

Another assay concerns P. morganii IFO 3168. Kind of assay: Minimum Inhibitory Concentration, agar dilution, P. morganii IFO 3168. Type of assay: cell-based, Proteus morganii. Conditions: Morganella morganii.
Excerpt: as §1

A further assay has as its system K. pneumoniae DT. The assay is described as follows: Minimum Inhibitory Concentration, agar dilution, K. pneumoniae DT. Type of assay: cell-based. Conditions: Klebsiella pneumoniae, read-out: Minimum Inhibitory Concentration.
Excerpt: as §1

A further assay has as its system P. rettgeri GN 4733. The assay is described as follows: Minimum Inhibitory Concentration, agar dilution, P. rettgeri GN 4733. The conditions noted are these: Providencia rettgeri. The format is cell-based, Proteus rettgeri.
Excerpt: as §1

Another assay relates to Ent. cloacae IFO 12937. Kind of assay: Minimum Inhibitory Concentration, agar dilution, Ent. cloacae IFO 12937. The conditions noted are these: Enterobacter cloacae. Type of assay: cell-based.
In the next assay the test system is E. coli O-111. The assay is described as follows: Minimum Inhibitory Concentration, agar dilution, E. coli O-111. Type of assay: cell-based. The conditions noted are these: Escherichia coli, O111; E. coli O-111; agar dilution; read-out: Minimum Inhibitory Concentration. The text has this: (§2) Following each example is a tabulation of the minimal inhibitory concentrations (MIC) of the present compound [I] obtained in accordance with the particular example against several representative gram-negative bacteria and the corresponding concentrations of cephaloridine [7-(2-thienylacetamido)-3-(1-pyridyl)methyl-3-cephem-4-carboxylic acid betaine] and cefazolin [sodium 7-(1H-tetrazol-1-yl)acetamido-3-(2-methyl-1,3,4-thiadiazol-5-yl)thiomethyl-3-cephem-4-carboxylate], both of which are typical cephalosporins commercially available and clinically accepted nowadays [The New England Journal of Medicine 294, 24 (1976) and Journal of Pharmaceutical Science 64, 1899 (1975)]. There are also shown the effective doses of the typical compounds of this invention on the mice infected with Escherichia coli in comparison with that of cephaloridine.
Minimum Inhibitory Concentrations (mcg/ml, agar dilution)

In a further assay the test system is E. coli NIHJ. The assay is described as follows: Minimum Inhibitory Concentration, agar dilution, E. coli NIHJ. Conditions: Escherichia coli, read-out: Minimum Inhibitory Concentration. Type of assay: cell-based.
Excerpt: as §1

For a further assay, the system named is P. mirabilis GN 4359. Kind of assay: Minimum Inhibitory Concentration, agar dilution, P. mirabilis GN 4359. Conditions: Proteus mirabilis. The format is cell-based.
Excerpt: as §1

A further assay deals with Escherichia coli O-111. The assay is described as follows: Comparative protection test on infected mice. Type of assay: in vivo. The conditions noted are these: O111, sc, 168 h; male ICR/SLC mice infected intraperitoneally with Escherichia coli O-111; single subcutaneous dose immediately after challenge; 7 days observation.
Excerpt: as §2
Comparative protection tests of the compounds of this
invention and cephaloridine on infected mice
*Test animals: male mice (ICR/SLC) 5 mice per group per single dose
Infection: intraperitoneally with Escherichia coli O-111
Administration: a single subcutaneous dose immediately after challenge
Observation period: 7 days

The next assay deals with Cit. freundii GN 1706. The assay is described as follows: Minimum Inhibitory Concentration, agar dilution, Cit. freundii GN 1706. Type of assay: cell-based. The conditions noted are these: Citrobacter freundii.
Excerpt: as §1

The next assay deals with Cit. freundii GN 99. The assay is described as follows: Minimum Inhibitory Concentration, agar dilution, Cit. freundii GN 99. The conditions noted are these: Citrobacter freundii. The format is cell-based.
Excerpt: as §1

The next assay concerns P. rettgeri 8(TNO 336). Kind of assay: Minimum Inhibitory Concentration, agar dilution, P. rettgeri 8(TNO 336). Type of assay: cell-based, Proteus rettgeri. Conditions: Providencia rettgeri.
Excerpt: as §1

The mark [1] stands for this setting: GN3835, K. pneumoniae GN 3835, agar dilution, read-out: Minimum Inhibitory Concentration.
Where [2] appears, read: IFO3988, P. vulgaris IFO 3988, agar dilution, read-out: Minimum Inhibitory Concentration.
The mark [3] stands for this setting: T7, E. coli T-7, agar dilution, read-out: Minimum Inhibitory Concentration.
Setting [4] is: IFO3168, P. morganii IFO 3168, agar dilution, read-out: Minimum Inhibitory Concentration.
Setting [5] is: GN4733, P. rettgeri GN 4733, agar dilution, read-out: Minimum Inhibitory Concentration.
[6] abbreviates: IFO12937, Ent. cloacae IFO 12937, agar dilution, read-out: Minimum Inhibitory Concentration.
The mark [7] stands for this setting: GN4359, read-out: Minimum Inhibitory Concentration.
Setting [8] is: GN1706, Cit. freundii GN 1706, agar dilution, read-out: Minimum Inhibitory Concentration.
Setting [9] is: GN99, Cit. freundii GN 99, agar dilution, read-out: Minimum Inhibitory Concentration.
[10] abbreviates: P. rettgeri 8(TNO 336), read-out: Minimum Inhibitory Concentration.
[11] abbreviates: K. pneumoniae DT, agar dilution.
[12] abbreviates: GN4359, P. mirabilis GN 4359, agar dilution, read-out: Minimum Inhibitory Concentration.

What is called ED50 is the dose at which the effect has come halfway, by size or by number of responders.

In brackets after ≈: the same amount, converted by molar mass. Like-named read-outs stand apart in the source and are kept apart here.

Regarding `O=C(Cc1cccs1)N[C@@H]1C(=O)N2C(C(=O)[O-])=C(C[n+]3ccccc3)CS[C@H]12` [Cephaloridine, 7-(2-thienylacetamido)-3-(1-pyridyl)methyl-3-cephem-4-carboxylic acid betaine, reference compound], the MIC in the assay on K. pneumoniae GN 3835 (setting [1]) was 50 µg/mL (≈ 120 µM); in the assay on P. vulgaris IFO 3988 (setting [2]) it was 6.25 µg/mL (≈ 15 µM); in the assay with E. coli T-7 (setting [3]), greater than 100 µg/mL; in the assay with P. morganii IFO 3168 (setting [4]), greater than 100 µg/mL; in the assay with K. pneumoniae DT it was 3.13 µg/mL (≈ 7.53 µM); in the assay with P. rettgeri GN 4733 (setting [5]), greater than 100 µg/mL. Moreover, the MIC with Ent. cloacae IFO 12937 (setting [6]) is greater than 100 µg/mL; in the assay with E. coli O-111, 3.13 µg/mL (≈ 7.53 µM); in the assay on E. coli NIHJ (E. coli NIHJ, agar dilution), 6.25 µg/mL (≈ 15 µM); in the assay with P. mirabilis GN 4359 (setting [7]) it was 3.13 µg/mL (≈ 7.53 µM); in the assay with Cit. freundii GN 1706 (setting [8]) it was greater than 100 µg/mL; with Cit. freundii GN 99 (setting [9]), 50 µg/mL (≈ 120 µM). The MIC with P. rettgeri 8(TNO 336) (setting [10]) was 1.56 µg/mL (≈ 3.75 µM). The ED50 with Escherichia coli O-111 was 2.6 mg/kg.
`N=c1scc(CC(=O)NC2C(=O)N3C(C(=O)[O-])=C(COC(N)=O)CS[C@H]23)n1O.[Na+]` (stereo partly shown) [Example 13, sodium 7-[2-(2-imino-3-hydroxy-4-thiazolin-4-yl)acetamido]-3-(carbamoyloxymethyl)-3-cephem-4-carboxylate]: the MIC in the assay on K. pneumoniae GN 3835 (GN3835, read-out: Minimum Inhibitory Concentration) was 0.2 µg/mL; in the assay on P. vulgaris IFO 3988 (IFO3988, read-out: Minimum Inhibitory Concentration), 0.39 µg/mL; in the assay with E. coli T-7 (T7, read-out: Minimum Inhibitory Concentration), 1.56 µg/mL; in the assay with P. morganii IFO 3168 (IFO3168, read-out: Minimum Inhibitory Concentration), 0.78 µg/mL; in the assay on K. pneumoniae DT, 0.2 µg/mL; in the assay on P. rettgeri GN 4733 (GN4733, read-out: Minimum Inhibitory Concentration) it was 0.2 µg/mL. The MIC in the assay on Ent. cloacae IFO 12937 (IFO12937, read-out: Minimum Inhibitory Concentration) worked out at 50 µg/mL; with E. coli O-111, 0.1 µg/mL; in the assay on E. coli NIHJ, 0.2 µg/mL; in the assay on P. mirabilis GN 4359 (setting [7]), 0.2 µg/mL; in the assay with Cit. freundii GN 1706 (GN1706, read-out: Minimum Inhibitory Concentration), 3.13 µg/mL; in the assay on Cit. freundii GN 99 (GN99, read-out: Minimum Inhibitory Concentration) it was 0.78 µg/mL. Further, the MIC in the assay with P. rettgeri 8(TNO 336) (read-out: Minimum Inhibitory Concentration, P. rettgeri 8(TNO 336)) is no more than 0.012 µg/mL. The same compound registered an ED50 in the assay on Escherichia coli O-111 of 0.084 mg/kg.
Consider `N=c1scc(CC(=O)NC2C(=O)N3C(C(=O)[O-])=C(C[n+]4ccc(C(N)=O)cc4)CSC23)n1O` (stereo not shown) [Example 10, 7-[2-(2-imino-3-hydroxy-4-thiazolin-4-yl)acetamido]-3-(4-carbamoylpyridinium)methyl-3-cephem-4-carboxylic acid betain], for which the MIC is 1.56 µg/mL (≈ 3.18 µM) in the assay with K. pneumoniae GN 3835 (setting [1]); 0.78 µg/mL (≈ 1.59 µM) in the assay on P. vulgaris IFO 3988 (setting [2]); 25 µg/mL (≈ 51 µM) with E. coli T-7 (setting [3]); 3.13 µg/mL (≈ 6.38 µM) in the assay on P. morganii IFO 3168 (setting [4]); 0.78 µg/mL (≈ 1.59 µM) in the assay on K. pneumoniae DT (setting [11]); no more than 0.2 µg/mL with P. rettgeri GN 4733 (setting [5]). The MIC in the assay with Ent. cloacae IFO 12937 (setting [6]) amounted to 25 µg/mL (≈ 51 µM); in the assay with E. coli O-111, 0.39 µg/mL (≈ 0.795 µM); in the assay with E. coli NIHJ (E. coli NIHJ, agar dilution), 1.56 µg/mL (≈ 3.18 µM); in the assay with P. mirabilis GN 4359 (setting [12]), 0.78 µg/mL (≈ 1.59 µM); in the assay on Cit. freundii GN 1706 (setting [8]), 12.5 µg/mL (≈ 25.5 µM); in the assay on Cit. freundii GN 99 (setting [9]), 1.56 µg/mL (≈ 3.18 µM). Besides, the MIC in the assay with P. rettgeri 8(TNO 336) (setting [10]) was no more than 0.2 µg/mL. This compound had a 50% effective dose (ED50) in the assay on Escherichia coli O-111 of 0.089 mg/kg.
Take `Cc1nnc(SCC2=C(C(=O)O)N3C(=O)C(NC(=O)Cc4csc(=N)n4O)C3SC2)o1` (stereo not shown) [Example 6, sodium 7-[2-(2-imino-3-hydroxy-4-thiazolin-4-yl)acetamido]-3-(5-methyl-1,3,4-oxadiazol-2-yl) thiomethyl-3-cephem-4-carboxylate]: the MIC in the assay with K. pneumoniae GN 3835 (setting [1]) stood at 0.78 µg/mL; in the assay with P. vulgaris IFO 3988 (setting [2]) it was 0.2 µg/mL; in the assay on E. coli T-7 (setting [3]), 3.13 µg/mL; in the assay with P. morganii IFO 3168 (setting [4]) it was 0.1 µg/mL; in the assay on K. pneumoniae DT (setting [11]) it was 0.1 µg/mL; with P. rettgeri GN 4733 (setting [5]), 0.1 µg/mL. For the same compound, the MIC with Ent. cloacae IFO 12937 (setting [6]) amounted to 50 µg/mL; in the assay on E. coli O-111 it was 0.05 µg/mL; in the assay with E. coli NIHJ (E. coli NIHJ, agar dilution), 0.1 µg/mL; in the assay with P. mirabilis GN 4359 (setting [12]) it was 0.1 µg/mL; with Cit. freundii GN 1706 (setting [8]), 1.56 µg/mL; with Cit. freundii GN 99 (setting [9]), 0.78 µg/mL. For the same compound, the MIC in the assay with P. rettgeri 8(TNO 336) (setting [10]) was no more than 0.012 µg/mL. The ED50 with Escherichia coli O-111 was 0.071 mg/kg.
Turning to `Cc1nnc(SCC2=C(C(=O)O)N3C(=O)C(NC(=O)Cc4csc(=N)n4O)C3SC2)s1` (stereo not shown) [Example 4, sodium 7-[2-(2-imino-3-hydroxy-4-thiazolin-4-yl)acetamido]-3-(2-methyl-1,3,4-thiadiazol-5-yl)thiomethyl-3-cephem-4-carboxylate], the MIC in the assay with K. pneumoniae GN 3835 (setting [1]) is 0.2 µg/mL; with P. vulgaris IFO 3988 (setting [2]), 0.1 µg/mL; with E. coli T-7 (setting [3]), 1.56 µg/mL; in the assay on P. morganii IFO 3168 (setting [4]), 0.1 µg/mL; in the assay with K. pneumoniae DT (setting [11]), 0.05 µg/mL; in the assay on P. rettgeri GN 4733 (setting [5]), 0.1 µg/mL. Besides, the MIC is 50 µg/mL in the assay on Ent. cloacae IFO 12937 (setting [6]); 0.024 µg/mL in the assay on E. coli O-111; 0.05 µg/mL in the assay on E. coli NIHJ (E. coli NIHJ, agar dilution); 0.05 µg/mL in the assay with P. mirabilis GN 4359 (setting [12]); 1.56 µg/mL in the assay with Cit. freundii GN 1706 (setting [8]); 0.78 µg/mL in the assay on Cit. freundii GN 99 (setting [9]). Besides, the MIC in the assay with P. rettgeri 8(TNO 336) (setting [10]) worked out at 0.012 µg/mL. This compound displayed an ED50 in the assay on Escherichia coli O-111 of 0.019 mg/kg.

The record behind these values is US4172891A, “Cephalosporins” (Takeda Chemical Industries, Inc., priority 1976, dated 1979).
